# Read-outs that look alike come from different tables or passages of the source.
# What was measured:
# [1] = system: IEC6 cells; assay: Cell viability assay, IEC6; assay type: cell-based; conditions: Rattus norvegicus
# Description: (§1) Cell viability assay: LNCap, 22Rv1, MCF7, MDAMB361, T47D, and IEC6 cells are seeded at a density of 500-2000 cells/well in 96 well plates, and a ‘T0’ (timepoint 0) was included along with the assay plate. The plates are then incubated at 37° C., 5% CO2 in a cell culture incubator overnight. On the next day, the ‘T0’ plate was assayed using CellTiterGlo (Promega, Inc) according to the manufacturer's instructions. The appropriate compounds are diluted in DMSO and added to the assay plate (final DMSO concentration of 0.1-0.2%) on the next day. The assay plates are incubated for 6 days at 37° C., 5% CO2. After the incubation period, the plates are assayed using CellTiterGlo (Promega, Inc) according to the manufacturer's instructions and luminescence was read on the EnVision plate reader. Inhibition of the tested compounds was determined by the following formula: Inhibition rate (%)=(1−(RLU compound−RLU day0)/(RLU control−RLU day0))*100%. GraphPadPrism was used to analyze the data and determine GI50/IC50 values.
# [2] = target: ER Alpha-ligand binding domain (LBD) (Homo sapiens (Human), UniProt P03372); assay: ER binding assay (LanthaScreen TR-FRET ER Alpha Competitive Binding); conditions: Fluormone ES2 Green tracer 3 nM, 2 h room temperature
# Description: ER binding assay: ERα binding was assessed using the LanthaScreen® TR-FRET ER Alpha Competitive Binding kit from ThermoFisherScientific. In this assay, a terbium-labeled anti-GST antibody was used to indirectly label GST-tagged ER Alpha-ligand binding domain (LBD) by binding to its GST tag. Competitive binding to the ER Alpha-LBD (GST) was detected by a test compound's ability to displace a fluorescent ligand (Fluormone™ ES2 Green tracer) from the ER Alpha-LBD (GST), which results in a loss of FRET signal between the Tb-anti-GST antibody and the tracer. Briefly, to assess ER binding of the DDC compounds, the test compounds (top dose 10 μM, 4 fold serial dilution, 8 point dose response) and controls were transferred to the assay plate. The Fluormone™ ES2 Green tracer (3 nM final concentration with assay buffer) was added to the assay plate. This was followed by addition of a mixture of the ER Alpha-LBD (GST) and terbium anti-GST antibody. After a 2 h incubation period at room temperature, the plate was read on the Envision plate reader and the TR-FRET ratio of 520:495 emissions were calculated and used to determine the IC50 from a dose response curve of the compound.
# [3] = system: MDAMB361 cells; assay: Cell viability assay, MDAMB361; assay type: cell-based; conditions: Homo sapiens
# Description: as §1
# [4] = target: ER (Homo sapiens (Human), UniProt P03372); assay: ER antagonism assay; assay type: cell-based; conditions: SK-BR-3 cells transfected with ERE plasmid and ER, 100 nM β-Estradiol, 24 h
# Description: ER antagonism assay: To evaluate ER antagonist activity, SK-BR-3 cells were seeded at a density of 30000 cells/well in the assay plate. The assay plate was then incubated at 37° C., 5% CO2 for 24 h. A mixture of ERE plasmid and ER in opti-MEM media was incubated with lipofectamine 3000 in Opti-MEM media and incubated at room temperature for 15 mins. 10 μl of this transfection mix was added to each well of the assay plate and the assay plate was incubated at 37° C., 5% CO2 for 24 h. 100 nM β-Estradiol in 10 μL medium or 10 μL medium (control wells) was added to corresponding wells of assay plate and incubated at 37° C. 5% CO2 for 24 h. After the incubation period, 50 μl of Dual-glo luciferase reagent was added to the assay plate and mixed at room temperature for 20 mins on an orbital shaker, before reading out on the EnVision plate reader. 50 μL of Stop & Glo reagent was added to assay plate, mixed at room temperature for 20 minutes, and read on the Envision plate reader.
# [5] = system: MCF7 cells; assay: Cell viability assay, MCF7; assay type: cell-based; conditions: Homo sapiens
# Description: as §1
# [6] = system: LNCap cells; assay: Cell viability assay, LNCap; assay type: cell-based; conditions: Homo sapiens, 144 h; LNCap cells, 6 days, CellTiterGlo; read-out: LNCap (GI50)
# Description: as §1
# [7] = system: T47D cells; assay: Cell viability assay, T47D; assay type: cell-based; conditions: Homo sapiens, 144 h; T47D cells, 6 days, CellTiterGlo; read-out: T47D (GI50)
# Description: as §1
# [8] = MDA-MB-361, 144 h, read-out: MDA-MB-361 (GI50, nM)
# [9] = MCF7, 144 h, read-out: MCF7 (GI50, nM)
# Sequence of ER (P03372 whole entry, looked up): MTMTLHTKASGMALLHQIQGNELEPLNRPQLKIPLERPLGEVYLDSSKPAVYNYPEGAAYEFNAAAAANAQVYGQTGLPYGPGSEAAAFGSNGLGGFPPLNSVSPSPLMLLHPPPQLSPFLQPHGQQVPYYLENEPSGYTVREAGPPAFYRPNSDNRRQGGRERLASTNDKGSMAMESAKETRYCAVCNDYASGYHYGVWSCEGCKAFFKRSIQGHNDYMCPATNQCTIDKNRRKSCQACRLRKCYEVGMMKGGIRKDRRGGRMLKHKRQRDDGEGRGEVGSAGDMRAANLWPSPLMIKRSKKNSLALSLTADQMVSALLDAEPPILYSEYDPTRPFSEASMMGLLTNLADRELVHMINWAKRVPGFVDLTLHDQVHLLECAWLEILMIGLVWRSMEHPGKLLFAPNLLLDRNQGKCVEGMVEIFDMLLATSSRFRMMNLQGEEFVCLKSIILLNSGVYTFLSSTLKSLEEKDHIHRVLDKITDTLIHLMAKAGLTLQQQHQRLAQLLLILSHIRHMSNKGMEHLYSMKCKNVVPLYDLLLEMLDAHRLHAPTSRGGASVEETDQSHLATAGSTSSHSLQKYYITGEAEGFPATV
# Sequence of ER Alpha-ligand binding domain (LBD) (P03372 whole entry, looked up, the tested form may be a part): as the sequence (P03372 whole entry, looked up) above
compound,measurement,setting,value
"CC[C@@]1(O)C(=O)OCc2c1cc1n(c2=O)Cc2cc3c(CN(C)C)c(OC(=O)N4CCN(CCCCCCOc5cc(F)c(C6c7[nH]c8ccccc8c7CC(C)N6CC(C)(C)F)c(F)c5)CC4)ccc3nc2-1 (stereo in doubt) [Compound 13, (S)-10-((Dimethylamino)methyl)-4-ethyl-4-hydroxy-3,14-dioxo-3,4,12,14-tetrahydro-1H-pyrano[3′,4′:6,7]indolizino[1,2-b]quinolin-9-yl 4-(6-(3,5-difluoro-4-((1S,3S)-2-(2-fluoro-2-methylpropyl)-3-methyl-2,3,4,9-tetrahydro-1H-pyrido[3,4-b]indol-1-yl)phenoxy)hexyl)piperazine-1-carboxylate]",IC50,"[1]; IEC-6, 144 h, read-out: IEC-6 (IC50, nM)",501 to 1000 nM
same,IC50,[2],10 to 500 nM
same,GI50,[3]; [8],10 to 500 nM
same,IC50,[4],10 to 500 nM
same,GI50,[5]; [9],10 to 500 nM
"CCc1c2c(nc3ccc(OC(=O)N4CCN(C(=O)CCCCCOc5cc(F)c([C@@H]6c7[nH]c8ccccc8c7C[C@@H](C)N6CC(C)(C)F)c(F)c5)CC4)cc13)-c1cc3c(c(=O)n1C2)COC(=O)[C@]3(O)CC [Compound 1, (S)-4,11-diethyl-4-hydroxy-3,14-dioxo-3,4,12,14-tetrahydro-1H-pyrano[3′,4′:6,7]indolizino[1,2-b]quinolin-9-yl 4-(6-(3,5-difluoro-4-((1R,3R)-2-(2-fluoro-2-methylpropyl)-3-methyl-2,3,4,9-tetrahydro-1H-pyrido[3,4-b]indol-1-yl)phenoxy)hexanoyl)piperazine-1-carboxylate]",IC50,[2],< 10 nM
same,GI50,[3]; [8],10 to 500 nM
same,IC50,[4],10 to 500 nM
same,GI50,[5]; [9],10 to 500 nM
"CCc1c2c(nc3ccc(OC(=O)N4CCN(CCCCCCOc5cc(F)c([C@@H]6c7[nH]c8ccccc8c7C[C@@H](C)N6CC(C)(C)F)c(F)c5)CC4)cc13)-c1cc3c(c(=O)n1C2)COC(=O)[C@]3(O)CC [Compound 2, (S)-4,11-diethyl-4-hydroxy-3,14-dioxo-3,4,12,14-tetrahydro-1H-pyrano[3′,4′:6,7]indolizino[1,2-b]quinolin-9-yl 4-(6-(3,5-difluoro-4-((1R,3R)-2-(2-fluoro-2-methylpropyl)-3-methyl-2,3,4,9-tetrahydro-1H-pyrido[3,4-b]indol-1-yl)phenoxy)hexyl)piperazine-1-carboxylate]",IC50,[2],< 10 nM
same,GI50,[3]; [8],10 to 500 nM
same,IC50,[4],10 to 500 nM
same,GI50,[5]; [9],10 to 500 nM
"CC[C@@]1(O)C(=O)OCc2c1cc1n(c2=O)Cc2cc3c(CN4CCN(C(=O)CCCCCN(C)c5ccc([C@H]6C[C@@]7(C)[C@@H](CC[C@]7(OC(C)=O)C(C)=O)[C@@H]7CCC8=CC(=O)CCC8=C76)cc5)CC4)c(O)ccc3nc2-1 [Compound 19, (8S,11R,13S,14S,17R)-17-Acetyl-11-(4-((6-(4-(((S)-4-ethyl-4,9-dihydroxy-3,14-dioxo-3,4,12,14-tetrahydro-1H-pyrano[3′,4′:6,7]indolizino[1,2-b]quinolin-10-yl)methyl)piperazin-1-yl)-6-oxohexyl)(methyl)amino)phenyl)-13-methyl-3-oxo-2,3,6,7,8,11,12,13,14,15,16,17-dodecahydro-1H-cyclopenta[a]phenanthren-17-yl Acetate]",IC50,"[1]; 144 h, IEC-6 cells, 6 days, CellTiterGlo, read-out: IEC-6 (IC50)",> 1000 nM
same,GI50,[6],10 to 500 nM
same,GI50,"[3]; 144 h, MDA-MB-361 cells, 6 days, CellTiterGlo, read-out: MDA-MB-361 (GI50)",10 to 500 nM
same,GI50,[7],10 to 500 nM
same,GI50,"[5]; 144 h, MCF7 cells, 6 days, CellTiterGlo, read-out: MCF7 (GI50)",10 to 500 nM

# Source: patent US11834458B2, “Anti-cancer nuclear hormone receptor-targeting compounds” (Nuvation Bio Inc., priority 2021, dated 2023)
